# Read-outs that look alike come from different tables or passages of the source.
# How the values were obtained:
# [1] = system: P. falciparum female gametes; test: Dual gamete formation assay (female); format: cell-based; conditions: Plasmodium falciparum
# Experimental: 604 Activity against transmissible stages of P. falciparum
# 605 Activity against male gametes was assessed using the dual gamete formation assay (PfDGFA)(32).
# 606 Compounds were incubated with mature stage V gametocytes ([…], kind gift from Professor Chris Janse
# 607 at Leiden University Medical Center (LUMC), the Netherlands) for 48 hours in 384 well plates before
# 608 gamete formation was triggered by a drop in temperature and addition of xanthurenic acid. Male gamete
# 609 exflagellation was recorded and quantified by automated microscopy. The ability of female gametes to
# 611 Multiple data sets using different gametocyte cultures were collected on each of two separate days.
# 613 Activity against exoerythrocytic stages
# 614 Primary human hepatocytes (H1500.H15B+ Lot No. HC10-10 Cryopreserved human hepatocytes)
# 615 were cultured for 2 days and then overlaid with P. falciparum NF54 sporozoites and compounds.
# 616 Supernatant was refreshed daily with fresh compounds.
# [2] = SCID, mouse, in vivo, ip, 50 mg/kg
# Experimental: 625 of 50 mg/kg of compound on day 3 post-infection and measuring the effect on blood parasitemia by
# 626 microscopic analysis of Giemsa-stained blood smears (on days 3, 4, 5, 6 and 7 post-infection). Mice were
# 630 Human biological samples were sourced ethically; and their research use was in accord with the terms of
# 631 the informed consent. All animal studies were ethically reviewed and carried out in accredited facilities in
# 632 accordance with the relevant country’s directives and the institution’s Policy on the Care, Welfare and
# 633 Treatment of Animals.
# 635 Plasma exposure in infected mouse model
# 637 blood samples (20 μL) were obtained at time points up to 24 hours after the first administration. Protein was
# 638 precipitated with acetonitrile and the remaining compound was assessed by LC-MS/MS in the selected reaction
# 641 Rat pharmacokinetics (PK) analyses
# 642 Sprague-Dawley rats (11 weeks old) were sourced from Hilltop Lab Animals, Inc (Scottdale, Pennsylvania,
# 643 USA). ML901 was formulated in EtOH: DMAC: PEG400: H2O at 1:1:4:4 (v/v) and 10% captisol in 50 […]
# 648 0.5% formic acid in methanol and the supernatants were analysed by positive ion electrospray LC-MS for
# 649 the administered compound. Non-compartmental pharmacokinetic parameters were calculated from […]
# 660 IGM Genomics Center on the Illumina HiSeq 2500 in RapidRun mode to generate 100bp paired-end reads.
# PfYRS = PfYRS (Plasmodium falciparum, UniProt Q8IAR7); test: ATP consumption by PfYRS (Kinase-Glo); format: biochemical
# Experimental: 804 An intron was detected in the PftRNATyr sequence, that was not indicated in PlasmoDB. A T7 RNA
# 805 polymerase promoter sequence was added to the 5’ end of the DNA sequence of P. falciparum and H.
# 806 sapiens tRNATyr. This DNA template and its complementary strand were custom-synthesized by Sigma-
# 807 Aldrich. Two oligonucleotides were annealed at 95°C for 5 min and the double-stranded DNA template
# 808 was used for in vitro transcription. The transcription reaction was incubated at 37°C overnight. The reaction
# 809 mixture consists of template DNA, T7 RNA polymerase and NTP mix as per manufacturer's instructions
# 810 (HiScribe™ T7 Quick High Yield RNA Synthesis Kit, NEB). On the following day, the reaction mixture
# 811 was treated with DNase I at 37°C for 15 min. tRNA was purified using RNA clean-up spin columns
# 812 (Monarch® RNA Cleanup Kit, NEB) to remove contaminants from the transcription reaction. […]
# 820 was sealed and analysed using StepOnePlus Real-Time PCR system (Applied Biosystems). […]
# 822 as the first derivative curve of the raw fluorescence values. […]
# 824 values were calculated from DTm using the equation: ln(KD/[L]) = -131.5 x (∆Tm/Tm,apo) - 1.9, where [L] […]
# 828 Consumption of ATP by YRS was measured using a luciferase-based assay as per the manufacturer’s […]
# 836 The aminoacylation activity of YRS was measured by the incorporation of tritiated L-tyrosine into tRNATyr […]
# PfYRS, sequence (Q8IAR7 entry or part of it): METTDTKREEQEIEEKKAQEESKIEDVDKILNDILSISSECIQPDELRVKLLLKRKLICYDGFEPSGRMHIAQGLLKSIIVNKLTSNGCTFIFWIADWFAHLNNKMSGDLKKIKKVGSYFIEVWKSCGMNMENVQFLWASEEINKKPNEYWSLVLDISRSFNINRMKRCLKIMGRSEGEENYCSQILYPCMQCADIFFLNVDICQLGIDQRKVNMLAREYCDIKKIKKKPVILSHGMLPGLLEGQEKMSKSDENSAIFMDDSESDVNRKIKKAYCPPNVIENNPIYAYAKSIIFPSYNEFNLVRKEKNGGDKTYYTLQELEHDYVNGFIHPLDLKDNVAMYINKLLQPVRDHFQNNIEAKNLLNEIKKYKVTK
smiles,measurement,setting,value
Nc1ncnc2c1c(OC(F)F)nn2[C@@H]1O[C@H](COS(N)(=O)=O)[C@@H](O)[C@H]1O [ML901],IC50,[1]; 48 h incubation with stage V gametocytes,4.7 ± 0.3 µM
same,inhibition at 25 µM,[1]; at 25 µM,81%
same,exposure (area under the curve),[2],580 µM·h
same,IC50,"PfYRS; in the absence of cognate tRNATyr, read-out: IC50 (-PftRNATyr), ATP consumption by PfYRS",> 500 µM
same,IC50,"PfYRS; in the presence of cognate tRNATyr, read-out: IC50 (+PftRNATyr), ATP consumption by PfYRS",25 µM
